Patent publication US11053213B2, “Pharmaceutical compounds” (ALMAC DISCOVERY LIMITED, priority 2016, dated 2021)
pIC50: −log10 of the molar value.

Biological target: USP19 (Homo sapiens (Human), UniProt O94966)
Test: USP19 activity assay (fluorescence polarisation, Ubiquitin-Lys-TAMRA substrate)
Assay type: biochemical
Conditions: full-length USP19 2.5 nM, 30 min pre-incubation, Ub substrate 500 nM; average of at least two duplicate experiments

USP19, sequence (O94966 whole entry): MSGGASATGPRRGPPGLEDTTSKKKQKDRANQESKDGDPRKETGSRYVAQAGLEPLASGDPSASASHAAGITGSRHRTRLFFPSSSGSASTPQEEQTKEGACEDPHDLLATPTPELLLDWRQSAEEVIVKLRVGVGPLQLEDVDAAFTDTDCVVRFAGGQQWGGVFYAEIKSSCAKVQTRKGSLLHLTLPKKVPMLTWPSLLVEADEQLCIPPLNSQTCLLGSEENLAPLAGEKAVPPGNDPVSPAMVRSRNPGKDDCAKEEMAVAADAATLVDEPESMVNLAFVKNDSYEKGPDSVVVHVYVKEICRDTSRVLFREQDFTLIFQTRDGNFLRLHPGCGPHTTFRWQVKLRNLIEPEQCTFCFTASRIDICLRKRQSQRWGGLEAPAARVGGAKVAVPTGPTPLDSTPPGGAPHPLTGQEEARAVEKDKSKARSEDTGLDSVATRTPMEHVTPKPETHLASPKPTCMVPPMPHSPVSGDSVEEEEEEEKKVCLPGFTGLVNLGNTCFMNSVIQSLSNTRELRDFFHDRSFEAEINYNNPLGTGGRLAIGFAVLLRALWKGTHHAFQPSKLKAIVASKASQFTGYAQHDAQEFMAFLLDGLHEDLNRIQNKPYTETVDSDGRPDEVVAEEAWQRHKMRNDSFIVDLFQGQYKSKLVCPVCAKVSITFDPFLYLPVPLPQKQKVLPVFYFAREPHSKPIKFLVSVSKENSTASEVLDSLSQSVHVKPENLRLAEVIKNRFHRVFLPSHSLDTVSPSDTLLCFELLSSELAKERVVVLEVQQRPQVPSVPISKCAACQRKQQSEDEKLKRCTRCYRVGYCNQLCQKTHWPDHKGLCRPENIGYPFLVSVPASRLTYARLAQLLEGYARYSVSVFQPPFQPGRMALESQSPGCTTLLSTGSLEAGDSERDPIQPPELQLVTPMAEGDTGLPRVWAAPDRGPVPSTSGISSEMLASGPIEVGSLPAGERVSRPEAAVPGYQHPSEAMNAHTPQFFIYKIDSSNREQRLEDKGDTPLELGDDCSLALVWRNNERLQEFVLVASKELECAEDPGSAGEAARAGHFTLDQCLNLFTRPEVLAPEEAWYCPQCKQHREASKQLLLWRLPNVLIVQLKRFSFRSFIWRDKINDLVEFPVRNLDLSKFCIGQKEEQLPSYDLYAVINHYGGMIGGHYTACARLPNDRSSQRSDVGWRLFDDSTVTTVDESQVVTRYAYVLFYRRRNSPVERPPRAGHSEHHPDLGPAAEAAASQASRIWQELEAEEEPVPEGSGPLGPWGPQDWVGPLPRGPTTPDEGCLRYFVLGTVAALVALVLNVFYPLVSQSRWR

Row | Compound | pIC50
1 | CN(C)C(=O)c1cn(CC2(O)CCN(C(=O)C(O)CC3CCCCC3)CC23CCCC3)c(=O)cc1-c1ccccc1 (centres unmarked) [Example 157, 1-((7-(3-Cyclohexyl-2-hydroxypropanoyl)-10-hydroxy-7-azaspiro[4.5]decan-10-yl)methyl)-N,N-dimethyl-6-oxo-4-phenyl-1,6-dihydropyridine-3-carboxamide] | > 6.30
2 | CCC(CC1CCCCC1)C(=O)N1CCC(O)(Cn2cnc(-c3ccccc3F)cc2=O)C(C)(C)C1 (centres unmarked) [Example 118, 3-((1-(2-(Cyclohexylmethyl)butanoyl)-4-hydroxy-3,3-dimethylpiperidin-4-yl)methyl)-6-(2-fluorophenyl)pyrimidin-4(3H)-one] | 5.30 to 6.30
3 | O=C(C(F)CC1CCCCC1)N1CCC(O)(Cn2cnc(-c3ccccc3F)cc2=O)CC1 (racemic) [Example 49, (R,S)-3-((1-(3-Cyclohexyl-2-fluoropropanoyl)-4-hydroxypiperidin-4-yl)methyl)-6-(2-fluorophenyl)pyrimidin-4(3H)-one] | 3.60 to 4.30
4 | C[C@H](CC(=O)N1CCC(O)(Cn2cc(C(=O)N3CCNCC3)c(-c3ccccc3)cc2=O)CC1)c1ccccc1 [Example 94, (R)-1-((4-Hydroxy-1-(3-phenylbutanoyl)piperidin-4-yl)methyl)-4-phenyl-5-(piperazine-1-carbonyl)pyridin-2(1H)-one] | 5.30 to 6.30
5 | CN(C)C(=O)c1cn(CC2(O)CCN(C(=O)c3nc(C(F)(F)F)cs3)CC23CCCC3)c(=O)cc1-c1ccccc1 (centres unmarked) [Example 245, 1-((10-Hydroxy-7-(4-(trifluoromethyl)thiazole-2-carbonyl)-7-azaspiro[4.5]decan-10-yl)methyl)-N,N-dimethyl-6-oxo-4-phenyl-1,6-dihydropyridine-3-carboxamide] | 4.30 to 5.30
6 | CC(CC(F)(F)F)C(=O)N1CCC(O)(Cn2cnc(-c3ccccc3F)cc2=O)C(C)(C)C1 (centres unmarked) [Example 143, 6-(2-Fluorophenyl)-3-((4-hydroxy-3,3-dimethyl-1-(4,4,4-trifluoro-2-methylbutanoyl)piperidin-4-yl)methyl)pyrimidin-4(3H)-one] | 4.30 to 5.30
7 | CC1(C(=O)N2CCC(O)(Cn3cnc(-c4ccccc4F)cc3=O)C(C)(C)C2)CCCCC1 (racemic) [Example 81, (R,S)-6-(2-Fluorophenyl)-3-((4-hydroxy-3,3-dimethyl-1-(1-methylcyclohexane-1-carbonyl)piperidin-4-yl)methyl)pyrimidin-4(3H)-one] | 3.60 to 4.30
8 | C[C@H](CC(=O)N1CCC(O)(Cn2cnc(-c3ccccc3OC(F)(F)F)cc2=O)CC1)c1ccccc1 [Example 30, (R)-3-((4-Hydroxy-1-(3-phenylbutanoyl)piperidin-4-yl)methyl)-6-(2-(trifluoromethoxy)phenyl)pyrimidin-4(3H)-one] | 3.60 to 4.30
9 | C[C@H](CC(=O)N1CCC(O)(Cn2cc(C(=O)N(C)c3ccccc3)c(-c3ccccc3)cc2=O)CC1)c1ccccc1 [Example 107, (R)-1-((4-Hydroxy-1-(3-phenylbutanoyl)piperidin-4-yl)methyl)-N-methyl-6-oxo-N,4-diphenyl-1,6-dihydropyridine-3-carboxamide] | 4.30 to 5.30
10 | CC(C)N(C)C(=O)c1cn(CC2(O)CCN(C(=O)C[C@@H](c3ccccc3)C(F)F)CC2)c(=O)cc1-c1ccccc1 [Example 71, (S)-1-((1-(4,4-Difluoro-3-phenylbutanoyl)-4-hydroxypiperidin-4-yl)methyl)-N-isopropyl-N-methyl-6-oxo-4-phenyl-1,6-dihydropyridine-3-carboxamide] | 4.30 to 5.30
11 | CC(OC1CCCCC1)C(=O)N1CCC(O)(Cn2cnc(-c3ccccc3F)cc2=O)C(C)(C)C1 (centres unmarked) [Example 126, 3-((1-(2-(Cyclohexyloxy)propanoyl)-4-hydroxy-3,3-dimethylpiperidin-4-yl)methyl)-6-(2-fluorophenyl)pyrimidin-4(3H)-one] | 3.60 to 4.30
12 | C[C@H](CC1CCCCC1)C(=O)N1CCC(O)(Cn2cnc(-c3ccn[nH]3)cc2=O)C(C)(C)C1 (stereo partly drawn) [Example 133, 3-((1-((R)-3-Cyclohexyl-2-methylpropanoyl)-4-hydroxy-3,3-dimethylpiperidin-4-yl)methyl)-6-(1H-pyrazol-5-yl)pyrimidin-4(3H)-one] | 5.30 to 6.30
13 | CN(C)C(=O)c1cn(CC2(O)CCN(C(=O)COC3CCCCC3)CC23CCCC3)c(=O)cc1-c1ccccc1 (centres unmarked) [Example 194, 1-((7-(2-(Cyclohexyloxy)acetyl)-10-hydroxy-7-azaspiro[4.5]decan-10-yl)methyl)-N,N-dimethyl-6-oxo-4-phenyl-1,6-dihydropyridine-3-carboxamide] | 4.30 to 5.30
14 | CC(C)N(C)C(=O)c1cn(CC2(O)CCN(C(=O)C[C@@H](C)c3ccccc3)CC2)c(=O)cc1-c1ccccc1 [Example 101, (R)-1-((4-Hydroxy-1-(3-phenylbutanoyl)piperidin-4-yl)methyl)-N-isopropyl-N-methyl-6-oxo-4-phenyl-1,6-dihydropyridine-3-carboxamide] | 4.30 to 5.30
15 | CC(C)N(C)C(=O)c1cn(CC2(O)CCN(C(=O)C[C@@H](C)c3ccccc3)CC2)c(=O)cc1-c1ccccc1F [Example 90, (R)-4-(2-Fluorophenyl)-1-((4-hydroxy-1-(3-phenylbutanoyl)piperidin-4-yl)methyl)-N-isopropyl-N-methyl-6-oxo-1,6-dihydropyridine-3-carboxamide] | 5.30 to 6.30
16 | C[C@H](CC1CCC1)C(=O)N1CC[C@@](O)(Cn2cc(C(=O)N3CCNCC3)c(-c3ccccc3)cc2=O)C2(CCCC2)C1 [Example 215, 1-(((S)-7-((R)-3-Cyclobutyl-2-methylpropanoyl)-10-hydroxy-7-azaspiro[4.5]decan-10-yl)methyl)-4-phenyl-5-(piperazine-1-carbonyl)pyridin-2(1H)-one] | > 6.30
17 | CC(C)CC1(C(=O)N2CCC(O)(Cn3cnc(-c4ccccc4F)cc3=O)C(C)(C)C2)CC1 (racemic) [Example 69, (R,S)-6-(2-Fluorophenyl)-3-((4-hydroxy-1-(1-isobutylcyclopropane-1-carbonyl)-3,3-dimethylpiperidin-4-yl)methyl)pyrimidin-4(3H)-one] | 4.30 to 5.30

Further lines, results first:

Row | pIC50 | Compound
18 | 4.30 to 5.30 | C[C@H](CC(=O)N1CCC(O)(Cn2cc(-c3cncnc3)c(-c3ccccc3)cc2=O)CC1)c1ccccc1 [Example 103, (R)-1-((4-Hydroxy-1-(3-phenylbutanoyl)piperidin-4-yl)methyl)-4-phenyl-5-(pyrimidin-5-yl)pyridin-2(1H)-one]
19 | 4.30 to 5.30 | CC(CC(F)F)C(=O)N1CCC(O)(Cn2cc(C(=O)N(C)C)c(-c3ccccc3)cc2=O)C2(CCCC2)C1 (centres unmarked) [Example 243, 1-((7-(4,4-Difluoro-2-methylbutanoyl)-10-hydroxy-7-azaspiro[4.5]decan-10-yl)methyl)-N,N-dimethyl-6-oxo-4-phenyl-1,6-dihydropyridine-3-carboxamide]
20 | 4.30 to 5.30 | O=C(C(O)CC1CCCCC1)N1CCC(O)(Cn2cnc(-c3ccccc3F)cc2=O)CC1 (racemic) [Example 44, (R,S)-3-((1-(3-Cyclohexyl-2-hydroxypropanoyl)-4-hydroxypiperidin-4-yl)methyl)-6-(2-fluorophenyl)pyrimidin-4(3H)-one]
21 | > 6.30 | C[C@H](CC1CCCCC1)C(=O)N1CC[C@@](O)(Cn2cc(C(=O)N3CCOCC3)c(-c3ccccc3)cc2=O)C2(CCCC2)C1 [Example 239, 1-(((S)-7-((R)-3-Cyclohexyl-2-methylpropanoyl)-10-hydroxy-7-azaspiro[4.5]decan-10-yl)methyl)-5-(morpholine-4-carbonyl)-4-phenylpyridin-2(1H)-one]
22 | 3.60 to 4.30 | Cc1c(-c2cc(=O)n(CC3(O)CCN(C(=O)C[C@@H](C)c4ccccc4)CC3)cn2)cnn1C [Example 112, (R)-6-(1,5-Dimethyl-1H-pyrazol-4-yl)-3-((4-hydroxy-1-(3-phenylbutanoyl)piperidin-4-yl)methyl)pyrimidin-4(3H)-one]
23 | > 6.30 | C[C@H](CC(F)(F)F)C(=O)N1CC[C@@](O)(Cn2cc(C(=O)N3CCN(C)CC3)c(-c3ccccc3)cc2=O)C2(CCCC2)C1 [Example 251, 1-(((S)-10-Hydroxy-7-((R)-4,4,4-trifluoro-2-methylbutanoyl)-7-azaspiro[4.5]decan-10-yl)methyl)-5-(4-methylpiperazine-1-carbonyl)-4-phenylpyridin-2(1H)-one]
24 | 4.30 to 5.30 | C[C@H](CC1CCCCC1)C(=O)N1CCC(O)(Cn2cc(C(=O)N(C)C)c(-c3ccccc3CO)cc2=O)C2(CCCC2)C1 (stereo partly drawn) [Example 151, 1-((7-((R)-3-Cyclohexyl-2-methylpropanoyl)-10-hydroxy-7-azaspiro[4.5]decan-10-yl)methyl)-4-(2-(hydroxymethyl)phenyl)-N,N-dimethyl-6-oxo-1,6-dihydropyridine-3-carboxamide]
25 | 3.60 to 4.30 | CC(Cn1cccn1)C(=O)N1CCC(O)(Cn2cnc(-c3ccccc3F)cc2=O)C(C)(C)C1 (centres unmarked) [Example 150, 6-(2-Fluorophenyl)-3-((4-hydroxy-3,3-dimethyl-1-(2-methyl-3-(1H-pyrazol-1-yl)propanoyl)piperidin-4-yl)methyl)pyrimidin-4(3H)-one]
26 | 4.30 to 5.30 | C[C@H](CC1CCCCC1)C(=O)N1CCC(O)(Cn2cnc(-c3cn[nH]c3)cc2=O)C(C)(C)C1 (stereo partly drawn) [Example 132, 3-((1-((R)-3-Cyclohexyl-2-methylpropanoyl)-4-hydroxy-3,3-dimethylpiperidin-4-yl)methyl)-6-(1H-pyrazol-4-yl)pyrimidin-4(3H)-one]
27 | 3.60 to 4.30 | C[C@H](CC(=O)N1CCC(O)(Cn2cnc(-c3ccccc3CO)cc2=O)CC1)c1ccccc1 [Example 74, (R)-3-((4-Hydroxy-1-(3-phenylbutanoyl)piperidin-4-yl)methyl)-6-(2-(hydroxymethyl)phenyl)pyrimidin-4(3H)-one]
28 | 4.30 to 5.30 | CN(C)C(=O)c1cn(CC2(O)CCN(C(=O)C3CC(C(F)(F)F)C3)CC23CCCC3)c(=O)cc1-c1ccccc1 (centres unmarked) [Example 229, 1-((10-Hydroxy-7-(3-(trifluoromethyl)cyclobutane-1-carbonyl)-7-azaspiro[4.5]decan-10-yl)methyl)-N,N-dimethyl-6-oxo-4-phenyl-1,6-dihydropyridine-3-carboxamide]
29 | 4.30 to 5.30 | C[C@H](CC1CCCCC1)C(=O)N1CC[C@](O)(Cn2cc(C(=O)N3CCNCC3)c(-c3ccccc3)cc2=O)C(C)(C)C1 [Example 125, 1-(((R)-1-((R)-3-Cyclohexyl-2-methylpropanoyl)-4-hydroxy-3,3-dimethylpiperidin-4-yl)methyl)-4-phenyl-5-(piperazine-1-carbonyl)pyridin-2(1H)-one]
